Laboratory results as given in paper PMC10981695, “The thylakoid proton antiporter KEA3 regulates photosynthesis in response to the chloroplast energy status” (Nature Communications, 2024).

Assays:
[1] = biological target: T1, RCT (regulatory C-terminus of KEA3, KEA3 AA495-776) (Arabidopsis thaliana, UniProt Q9M0Z3); test: temperature-related intensity change (TRIC), RED-tris-NTA labelled His-tag, one-site fit; assay type: binding
T1 sequence (Q9M0Z3 495-776): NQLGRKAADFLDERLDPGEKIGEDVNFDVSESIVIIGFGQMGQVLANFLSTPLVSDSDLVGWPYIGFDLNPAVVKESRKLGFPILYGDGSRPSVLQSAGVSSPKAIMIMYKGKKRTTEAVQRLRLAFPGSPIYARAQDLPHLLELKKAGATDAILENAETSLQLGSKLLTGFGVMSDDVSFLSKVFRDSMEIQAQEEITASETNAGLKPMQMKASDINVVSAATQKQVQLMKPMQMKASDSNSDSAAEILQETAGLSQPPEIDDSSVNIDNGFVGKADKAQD
From the text: temperature-related intensity change (TRIC), RED-tris-NTA labelled His-tag, one-site fit on RCT (regulatory C-terminus of KEA3, KEA3 AA495-776)

[2] = biological target: T1, RCT (regulatory C-terminus of KEA3, KEA3 AA495-776); test: differential scanning fluorimetry (nanoDSF, intrinsic fluorescence); assay type: binding; settings: pH 8.0, PBS; 50 and 500 µM ligand
KEA3 = biological target: T2, KEA3 (Arabidopsis thaliana, UniProt Q9M0Z3); test: affinity pull-down with ATP-linked agarose beads, immunoblot; assay type: biochemical; settings: solubilized thylakoids; ATP immobilised via linker
T2 construct: native full-length KEA3 in detergent-solubilized wild-type thylakoid membranes, detected with specific KEA3 antibody
T2 sequence (Q9M0Z3 73-776): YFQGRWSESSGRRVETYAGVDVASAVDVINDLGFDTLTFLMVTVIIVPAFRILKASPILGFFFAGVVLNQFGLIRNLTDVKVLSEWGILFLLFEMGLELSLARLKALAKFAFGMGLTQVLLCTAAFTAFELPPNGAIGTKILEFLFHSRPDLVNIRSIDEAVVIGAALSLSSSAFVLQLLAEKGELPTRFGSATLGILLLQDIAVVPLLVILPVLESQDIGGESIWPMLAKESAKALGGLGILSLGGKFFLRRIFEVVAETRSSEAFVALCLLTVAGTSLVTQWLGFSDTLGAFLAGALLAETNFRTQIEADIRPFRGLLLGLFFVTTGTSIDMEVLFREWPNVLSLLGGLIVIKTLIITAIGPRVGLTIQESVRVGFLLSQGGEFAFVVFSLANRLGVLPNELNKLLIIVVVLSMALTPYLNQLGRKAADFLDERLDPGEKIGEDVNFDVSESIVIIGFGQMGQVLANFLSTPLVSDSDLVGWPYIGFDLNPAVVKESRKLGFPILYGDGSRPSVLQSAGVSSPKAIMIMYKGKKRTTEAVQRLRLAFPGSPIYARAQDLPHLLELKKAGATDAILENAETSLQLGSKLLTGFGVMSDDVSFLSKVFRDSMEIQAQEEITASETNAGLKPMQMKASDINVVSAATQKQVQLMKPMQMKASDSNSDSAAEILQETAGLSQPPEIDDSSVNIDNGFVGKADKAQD

Kd [1] [µM]	SMILES	ΔTM [2]	affinity pull-down with ATP-linked agarose beads, immunoblot (KEA3)
8	NC(=O)c1ccc[n+]([C@@H]2O[C@H](COP(=O)(O)OP(=O)(O)OC[C@H]3O[C@@H](n4cnc5c(N)ncnc54)[C@H](OP(=O)(O)O)[C@@H]3O)[C@@H](O)[C@H]2O)c1 [NADP^+]		
42	Nc1ncnc2c1ncn2[C@@H]1O[C@H](COP(=O)(O)OP(=O)(O)OP(=O)(O)O)[C@@H](O)[C@H]1O [ATP]	Addition of either ADP or ATP yielded a concentration-dependent increase in the ΔTM of RCT	KEA3 was detected on three of four different types of ATP-linked agarose beads
38	NC(=O)C1=CN([C@@H]2O[C@H](COP(=O)(O)OP(=O)(O)OC[C@H]3O[C@@H](n4cnc5c(N)ncnc54)[C@H](OP(=O)(O)O)[C@@H]3O)[C@@H](O)[C@H]2O)C=CC1 [NADPH]		
51	Nc1ncnc2c1ncn2[C@@H]1O[C@H](COP(=O)(O)OP(=O)(O)O)[C@@H](O)[C@H]1O [ADP]	Addition of either ADP or ATP yielded a concentration-dependent increase in the ΔTM of RCT	
